Assay results: EP0313846B1, “Method for controlling chronic respiratory disease, and necrotic enteritis in avian species” (AMERICAN CYANAMID COMPANY, priority 1987, dated 1989)
In brackets after ≈: the same amount, converted by molar mass. Like-named read-outs stand apart in the source and are kept apart here.

Tests used:
[1] = test system: Streptococcus faecalis; test: Minimum inhibitory concentration by agar dilution (Table V); type: cell-based; settings: Streptococcus faecalis (1 strain tested)
[2] = test system: Streptococcus pyogenes C203; test: In vivo antibacterial activity in infected mice (Table III); design: species or system female CD-1 mice; settings: S. pyogenes C203, mice, 30 minutes before infection
[3] = test system: Staphylococcus aureus Smith; test: as above; design: species or system female CD-1 mice; settings: S. aureus Smith, 30 minutes before infection
[4] = test system: Treponema hyodysenteriae; test: T. hyodysenteriae disk test (primary in vitro disk diffusion test); type: cell-based; settings: disks soaked in 2.5 mg/ml solution, zones of inhibited hemolysis
[5] = test system: Escherichia coli; test: Minimum inhibitory concentration by agar dilution (Table V); type: cell-based; settings: Escherichia coli (2 strains tested)
[6] = test system: Treponema hyodysenteriae; test: Minimum inhibitory concentration by microdilution (Table VI); type: cell-based
[7] = test system: Streptococcus agalactiae; test: Minimum inhibitory concentration by agar dilution (Table V); type: cell-based; settings: Streptococcus agalactiae (4 strains tested)
[8] = test system: Mycoplasma gallisepticum; test: Treatment of Mycoplasma gallisepticum caused chronic respiratory disease in poultry; type: in vivo; settings: for Final Mean Body Weight (g) of Survivors / Overall % Mortality / Overall Feed-to-Gain: 7 days pre- and 7 days postchallenge; for Final Mean Body Weight (g) of Survivors / Overall % Mortality / Overall Feed-to-Gain / Mean Air Sac Lesion Scores: M. gallisepticum challenged birds; for Mean Air Sac Lesion Scores: score 0-3
Protocol: This study is conducted to evaluate the efficacy of antibiotic LL-E19020α against Mycoplasma gallisepticum caused chronic respiratory disease in poultry. The antibiotic is fed continuously at 10 and 50 g/ton for 7 days pre- and 7 days postchallenge. Birds similarly fed a diet containing 100 g/ton chlortetracycline serve as a positive control group. Infected and noninfected, nonmedicated control groups are also included. After 7 days on respective treatment diets, birds are challenged with M. gallisepticum (MG) into the right and left post-thoracic air sacs. The air sacs are cultured for the presence of Mycoplasma from all birds dying postchallenge. The air sacs of all birds are scored based on gross lesions upon necropsy at death or at study end. Survivors at study end are bled prior to necropsy for Mycoplasma gallisepticum serology testing. Body weight and feed intake measurements are made at specified intervals during the study.

[9] = test system: Streptococcus pyogenes; test: Minimum inhibitory concentration by agar dilution (Table V); type: cell-based; settings: Streptococcus pyogenes (2 strains tested)
[10] = test system: Staphylococcus aureus; test: as above; type: cell-based; settings: Staphylococcus aureus (7 strains tested)
[11] = test system: Salmonella choleraesuis; test: as above; type: cell-based; settings: Salmonella choleraesuis (2 strains tested)
[12] = test system: Clostridium perfringens type C; type: in vivo, broiler chicks; settings: infected chicks, treatment mean; for Lesion Scores: intestinal lesion score 0-4, day 19
[13] = test system: Pasteurella haemolytica; test: Minimum inhibitory concentration by agar dilution (Table V); type: cell-based; settings: Pasteurella haemolytica (3 strains tested)
[14] = test system: Streptococcus uberis; test: as above; type: cell-based; settings: Streptococcus uberis (1 strain tested)
[15] = test system: Peptococcus magnus; test: In vitro antibacterial activity, standard agar dilution method (Table II); type: cell-based; settings: 18 hours incubation
Protocol: (§1) The in vitro antibacterial activity of LL-E19020α and β was determined against a spectrum of gram-positive and gram-negative bacteria by a standard agar dilution method. Mueller-Hinton agar containing 5% sheep blood and two-fold decreasing concentrations of either LL-E19020α or β were poured into petri dishes. The agar surfaces were inoculated with 1 to 5x10⁴ colony forming units of bacteria by means of the Steers replicating device. The lowest concentration of antibiotic that inhibited growth of a bacterial strain after 18 hours incubation was recorded as the minimal inhibitory concentration for that strain.

[16] = test system: Streptococcus sp. (β-hemolytic); test: as above; type: cell-based; settings: 18 hours incubation
Protocol: as §1

[17] = test system: Clostridium difficile ATCC 17858; test: as above; type: cell-based; settings: 18 hours incubation
Protocol: as §1

[18] = test system: Streptococcus pneumoniae; test: as above; type: cell-based; settings: 18 hours incubation
Protocol: as §1

[19] = test system: Pasteurella haemolytica 30660; test: Pasteurella disk test (primary in vitro disk diffusion test); type: cell-based; settings: disks soaked in 2.5 mg/ml solution of test compound, zones of inhibition
Protocol: (§2) Zones of inhibition are recorded.

[20] = test system: Pasteurella multocida 31081B; test: as above; type: cell-based; settings: disks soaked in 2.5 mg/ml solution of test compound, zones of inhibition
Protocol: as §2

[21] = test system: Clostridium perfringens ATCC 13124; type: cell-based; settings: 18 hours incubation
[22] = test system: Bordetella bronchiseptica; test: Minimum inhibitory concentration by agar dilution (Table V); type: cell-based; settings: Bordetella bronchiseptica (4 strains tested)
[23] = test system: Mycoplasma gallisepticum "R"; test: Minimum inhibitory concentration assay for Mycoplasma gallisepticum (microdilution, Table VI); type: cell-based; settings: Mycoplasmoides gallisepticum
Protocol: • 1. […] Both cultures are incubated at 37°C. […] Appropriate solvent controls are also included. • 4.

[24] = single subcutaneous dose 4 mg/kg
[25] = single subcutaneous dose 16 mg/kg
[26] = single subcutaneous dose 64 mg/kg
[27] = Treponema hyodysenteriae B78 (ATCC 27164)
[28] = Treponema hyodysenteriae B204 (ATCC 31212)
[29] = 50 grams per ton of feed, Mycoplasma gallisepticum infected chicks
[30] = 100 g/ton in feed (positive control)

## C/C=C\C=C\[C@@H]1O[C@](O)([C@H](CO[C@H]2C[C@@H](OC)[C@@H](O[C@@H]3C[C@@H](OC)[C@@H](O[C@H]4C[C@H](OC)[C@H](O)[C@H](C)O4)[C@H](C)O3)[C@@H](C)O2)C(=O)NC/C=C/C=C(\C)[C@@H](OC)[C@H](C)[C@H]2C[C@H](O)[C@H](/C=C/C=C/C=C/C(=O)O)O2)[C@H](OC(=O)Cc2ccccc2)[C@H](O)C1(C)C [LL-E19020α]
[1]
  MIC: 8 µg/mL (≈ 6.52 µM)
[2]; [24]
  Survival Ratios 7 Days After Infection: 2/5
[2]; single subcutaneous dose 8 mg/kg
  Survival Ratios 7 Days After Infection: 4/5
[2]; [25]
  Survival Ratios 7 Days After Infection: 5/5
[2]; single subcutaneous dose 32 mg/kg
  Survival Ratios 7 Days After Infection: 5/5
[2]; [26]
  Survival Ratios 7 Days After Infection: 5/5
[3]; [24]
  Survival Ratios 7 Days After Infection: 2/5
[3]; [25]
  Survival Ratios 7 Days After Infection: 3/5
[3]; [26]
  Survival Ratios 7 Days After Infection: 3/5
[3]; single subcutaneous dose 256 mg/kg
  Survival Ratios 7 Days After Infection: 3/5
[4]; [27]
  ZONE SIZE: 0 mm
[4]; [28]
  ZONE SIZE: 15 mm
[5]
  MIC: ≧256 µg/ml
[6]; [27]
  MIC: 1 µg/mL (≈ 0.815 µM)
[6]; [28]
  MIC: 1 µg/mL (≈ 0.815 µM)
[7]
  MIC: 2 to 8 µg/mL
[8]; 10 g/ton in feed
  Final Mean Body Weight (g) of Survivors: 336 g
  Overall % Mortality: 41.3%
  Overall Feed-to-Gain: 1.88
  Mean Air Sac Lesion Scores: 2.04
[8]; 50 g/ton in feed
  Final Mean Body Weight (g) of Survivors: 349 g
  Overall % Mortality: 36.3%
  Overall Feed-to-Gain: 1.84
  Mean Air Sac Lesion Scores: 2.11
[8]; [29]
  feed to gain ratios compared with infected nonmedicated chicks: better feed to gain ratios
  mortality compared with infected nonmedicated chicks: less mortality
  weight gain compared with infected nonmedicated chicks: better weight gain
[9]
  MIC: 2 µg/mL (≈ 1.63 µM)
[10]
  MIC: ≧256 µg/ml
[11]
  MIC: >256 µg/mL
[12]; 5 ppm
  % Mortality: 2.5%
  Feed/Gain: 1.97
  Final Weight: 639.2
  Lesion Scores: 0.35
[12]; 50 ppm
  % Mortality: 2.5%
  Feed/Gain: 1.80
  Final Weight: 699.4
  Lesion Scores: 0.38
[13]
  MIC: 16 µg/mL (≈ 13 µM)
[14]
  MIC: 8 µg/mL (≈ 6.52 µM)
[15]; Peptococcus magnus ATCC 14956
  Minimal Inhibitory Concentration: 0.12 µg/mL
[15]; Peptococcus magnus ATCC 29328
  Minimal Inhibitory Concentration: 0.12 µg/mL
[16]; Streptococcus sp. (β-hemolytic) C203
  Minimal Inhibitory Concentration: 0.5 µg/mL
[16]; Streptococcus sp. (β-hemolytic) VGH-84-60
  Minimal Inhibitory Concentration: 0.25 µg/mL
[16]; Streptococcus sp. (β-hemolytic) VGH-84-61
  Minimal Inhibitory Concentration: 1 µg/mL
[16]; Streptococcus sp. (β-hemolytic) VGH-84-62
  Minimal Inhibitory Concentration: 1 µg/mL
[16]; Streptococcus sp. (β-hemolytic) VGH-84-63
  Minimal Inhibitory Concentration: 0.12 µg/mL
[16]; Streptococcus sp. (β-hemolytic) VGH-84-64
  Minimal Inhibitory Concentration: 0.12 µg/mL
[17]
  Minimal Inhibitory Concentration: 4 µg/mL
[18]; Streptococcus pneumoniae SVI
  Minimal Inhibitory Concentration: 1 µg/mL
[18]; Streptococcus pneumoniae VGH-84-56
  Minimal Inhibitory Concentration: 1 µg/mL
[18]; Streptococcus pneumoniae VGH-84-57
  Minimal Inhibitory Concentration: 2 µg/mL
[18]; Streptococcus pneumoniae VGH-84-58
  Minimal Inhibitory Concentration: 0.25 µg/mL
[18]; Streptococcus pneumoniae VGH-84-59
  Minimal Inhibitory Concentration: 0.25 µg/mL
[19]
  ZONE SIZE: 13 mm
[20]
  ZONE SIZE: 15 mm
[21]
  Minimal Inhibitory Concentration: 16 µg/mL
[22]
  MIC: >256 µg/mL

## CN(C)[C@@H]1C(O)=C(C(N)=O)C(=O)[C@@]2(O)C(O)=C3C(=O)c4c(O)ccc(Cl)c4[C@@](C)(O)[C@H]3C[C@@H]12 [CTC, Chlortetracycline, reference compound]
[23]
  MIC: 0.5 µg/mL (≈ 1.04 µM)
[8]; [30]
  Final Mean Body Weight (g) of Survivors: 398 g
  Overall % Mortality: 25.0%
  Overall Feed-to-Gain: 1.83
  Mean Air Sac Lesion Scores: 1.88
